Data as given in patent US20230278972A1, “SUBSTITUTED HALOALKYL SULFONANILIDE HERBICIDES” (FMC Corporation, priority 2020, published 2023).

What was measured:
Format in all cases: in vivo
[1] = tested on: pigweed (Amaranthus retroflexus); assay: Test A preemergence, pigweed; settings: for Plant response rating, Pigweed: 0 to 100 scale (0 no effect, 100 complete control); for Pigweed plant response rating: 500 g ai/ha, visual injury on 0 to 100 scale (0 no effect, 100 complete control), approximately 10 days
How it was run: (§1)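 Whole-plant herbicidal screen in pots of loam blended with sand. Sprays used a surfactant-containing, non-phytotoxic solvent vehicle. Timing was preemergence soil-directed at planting or postemergence at the one- to two-leaf stage (2–10 cm).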

[2] = tested on: Ryegrass, Italian (Italian ryegrass, Lolium multiflorum); assay: Test A preemergence, Ryegrass, Italian; settings: Preemergence; for Plant response rating, Ryegrass, Italian: 0 to 100 scale (0 no effect, 100 complete control); for Ryegrass, Italian plant response rating: 500 g ai/ha, visual injury on 0 to 100 scale (0 no effect, 100 complete control), approximately 10 days
How it was run: (§2)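 Postemergence ratings come from foliar sprays onto one- to two-leaf plants of 2 to 10 cm grown in loam/sand; preemergence ratings come from a directed spray onto the soil of newly seeded pots. Formulation was a surfactant-containing non-phytotoxic solvent blend.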

kochia (Bassia scoparia) [3] = assay: Test A postemergence, kochia; settings: Postemergence, 0 to 100 scale (0 no effect, 100 complete control); for Kochia plant response rating: visual injury vs untreated controls after approx. 10 days
How it was run: as §2

[4] = tested on: barnyardgrass (Echinochloa crus-galli); assay: Test A preemergence, barnyardgrass; settings: Preemergence; for Plant response rating, Barnyardgrass: 0 to 100 scale (0 no effect, 100 complete control)
How it was run: as §2

[5] = tested on: wheat (Triticum aestivum); assay: Test A postemergence, wheat; settings: Postemergence, 0 to 100 scale (0 no effect, 100 complete control); for Wheat plant response rating: visual injury vs untreated controls after approx. 10 days
How it was run: as §1

[6] = tested on: blackgrass (Alopecurus myosuroides); assay: Test A postemergence, blackgrass; settings: Postemergence, 0 to 100 scale (0 no effect, 100 complete control); for Blackgrass plant response rating: visual injury vs untreated controls after approx. 10 days
How it was run: as §2

[7] = tested on: Foxtail, Giant (giant foxtail, Setaria faberi); assay: Test A preemergence, Foxtail, Giant; settings: Preemergence; for Plant response rating, Foxtail, Giant: 0 to 100 scale (0 no effect, 100 complete control); for Foxtail, Giant plant response rating: 500 g ai/ha, visual injury on 0 to 100 scale (0 no effect, 100 complete control), approximately 10 days
How it was run: as §2

corn (Zea mays) = assay: Test A postemergence, corn; settings: Postemergence, 0 to 100 scale (0 no effect, 100 complete control); for Corn plant response rating: visual injury vs untreated controls after approx. 10 days
How it was run: as §2

kochia (Bassia scoparia) [8] = assay: Test A preemergence, kochia; settings: Preemergence; for Plant response rating, Kochia: 0 to 100 scale (0 no effect, 100 complete control); for Kochia plant response rating: 500 g ai/ha, visual injury on 0 to 100 scale (0 no effect, 100 complete control), approximately 10 days
How it was run: as §2

[9] = tested on: barnyardgrass (Echinochloa crus-galli); assay: Test A postemergence, barnyardgrass; settings: Postemergence, 0 to 100 scale (0 no effect, 100 complete control); for Barnyardgrass plant response rating: visual injury vs untreated controls after approx. 10 days
How it was run: as §1

[10] = tested on: ragweed (common ragweed, Ambrosia artemisiifolia); assay: Test A postemergence, ragweed; settings: Postemergence, 0 to 100 scale (0 no effect, 100 complete control); for Ragweed plant response rating: visual injury vs untreated controls after approx. 10 days
How it was run: as §2

[11] = tested on: Foxtail, Giant (giant foxtail, Setaria faberi); assay: Test A postemergence, Foxtail, Giant; settings: Postemergence, 0 to 100 scale (0 no effect, 100 complete control); for Foxtail, Giant plant response rating: visual injury vs untreated controls after approx. 10 days
How it was run: as §2

[12] = tested on: galium (catchweed bedstraw, Galium aparine); assay: Test A postemergence, galium; settings: Postemergence, 0 to 100 scale (0 no effect, 100 complete control); for Galium plant response rating: visual injury vs untreated controls after approx. 10 days
How it was run: as §1

[13] = tested on: ragweed (common ragweed, Ambrosia artemisiifolia); assay: Test A preemergence, ragweed; settings: Preemergence; for Plant response rating, Ragweed: 0 to 100 scale (0 no effect, 100 complete control); for Ragweed plant response rating: 500 g ai/ha, visual injury on 0 to 100 scale (0 no effect, 100 complete control), approximately 10 days
How it was run: as §2

[14] = tested on: pigweed (Amaranthus retroflexus); assay: Test A postemergence, pigweed; settings: Postemergence, 0 to 100 scale (0 no effect, 100 complete control); for Pigweed plant response rating: visual injury vs untreated controls after approx. 10 days
How it was run: as §2

[15] = tested on: Ryegrass, Italian (Italian ryegrass, Lolium multiflorum); assay: Test A postemergence, Ryegrass, Italian; settings: Postemergence, 0 to 100 scale (0 no effect, 100 complete control); for Ryegrass, Italian plant response rating: visual injury vs untreated controls after approx. 10 days
How it was run: as §2

[16] = 125 g ai/ha, visual injury, approx. 10 days
[17] = 500 g ai/ha, visual injury approx. 10 days
[18] = 1000 g ai/ha, visual injury, approx. 10 days

Structure (SMILES)	Plant response rating, Pigweed [1, 16]	Pigweed plant response rating [1]	Plant response rating, Ryegrass, Italian [2, 16]	Ryegrass, Italian plant response rating [2]	Plant response rating, Kochia (kochia (Bassia scoparia) [3]; 125 g ai/ha)	Plant response rating, Barnyardgrass [4, 16]	Plant response rating, Wheat ([5]; 125 g ai/ha)	Plant response rating, Blackgrass ([6]; 125 g ai/ha)	Plant response rating, Foxtail, Giant [7, 16]	Foxtail, Giant plant response rating [7]	Plant response rating, Corn (corn (Zea mays); 125 g ai/ha)	Plant response rating, Kochia (kochia (Bassia scoparia) [8]; [16])	Kochia plant response rating (kochia (Bassia scoparia) [8])	Plant response rating, Barnyardgrass ([9]; 125 g ai/ha)	Plant response rating, Ragweed ([10]; 125 g ai/ha)	Plant response rating, Foxtail, Giant ([11]; 125 g ai/ha)	Plant response rating, Galium ([12]; 125 g ai/ha)	Plant response rating, Ragweed [13, 16]	Ragweed plant response rating [13]	Plant response rating, Pigweed ([14]; 125 g ai/ha)	further results
Cc1cc(F)c(C(=O)N2CC(C)OC(C)C2)cc1NS(=O)(=O)C(F)(F)F (stereo not shown) [Compound 238]	20	80	60	90	20	0	60	0	30	60	0	80	60	0	60	30	80	20	90	30	Kochia plant response rating (kochia (Bassia scoparia) [3]; 500 g ai/ha): 30; Plant response rating, Barnyardgrass ([4]; 500 g ai/ha): 0; Wheat plant response rating ([5]; 500 g ai/ha): 70; Blackgrass plant response rating ([6]; 500 g ai/ha): 30; Corn plant response rating (corn (Zea mays); 500 g ai/ha): 0; Barnyardgrass plant response rating ([9]; 500 g ai/ha): 60; Ragweed plant response rating ([10]; 500 g ai/ha): 80; Foxtail, Giant plant response rating ([11]; 500 g ai/ha): 70; Galium plant response rating ([12]; 500 g ai/ha): 80; Pigweed plant response rating ([14]; 500 g ai/ha): 80; Plant response rating, Ryegrass, Italian ([15]; 125 g ai/ha): 30; Ryegrass, Italian plant response rating ([15]; 500 g ai/ha): 70
Cc1cc(F)c(C(=O)N2CCC(C#N)CC2)cc1N(S(=O)(=O)C(F)(F)F)S(=O)(=O)C(F)(F)F [Compound 239]	60	90	0	30	0	0	0	0	20	60	0	30	80	0	0	0	0	20	70	20	Kochia plant response rating (kochia (Bassia scoparia) [3]; 500 g ai/ha): 10; Plant response rating, Barnyardgrass ([4]; 500 g ai/ha): 20; Wheat plant response rating ([5]; 500 g ai/ha): 0; Blackgrass plant response rating ([6]; 500 g ai/ha): 0; Corn plant response rating (corn (Zea mays); 500 g ai/ha): 10; Barnyardgrass plant response rating ([9]; 500 g ai/ha): 0; Ragweed plant response rating ([10]; 500 g ai/ha): 0; Foxtail, Giant plant response rating ([11]; 500 g ai/ha): 30; Galium plant response rating ([12]; 500 g ai/ha): 40; Pigweed plant response rating ([14]; 500 g ai/ha): 50; Plant response rating, Ryegrass, Italian ([15]; 125 g ai/ha): 0; Ryegrass, Italian plant response rating ([15]; 500 g ai/ha): 0
Cc1cc(F)c(C(=O)N2CCOCC2)cc1NS(=O)(=O)C(F)(F)F [Compound 240]	0	80	40	70	50	0	0	0	30	80	20	70	90	40	70	20	50	30	50	30	Plant response rating, Kochia (kochia (Bassia scoparia) [3]; [17]): 80; Barnyardgrass plant response rating ([4]; 500 g ai/ha, visual injury on 0 to 100 scale (0 no effect, 100 complete control), approximately 10 days): 50; Plant response rating, Wheat [5, 17]: 30; Plant response rating, Blackgrass [6, 17]: 10; Plant response rating, Corn (corn (Zea mays); [17]): 10; Plant response rating, Barnyardgrass [9, 17]: 70; Plant response rating, Ragweed [10, 17]: 90; Plant response rating, Foxtail, Giant [11, 17]: 60; Plant response rating, Galium [12, 17]: 70; Plant response rating, Pigweed [14, 17]: 50; Plant response rating, Ryegrass, Italian ([15]; 125 g ai/ha): 30; Plant response rating, Ryegrass, Italian [15, 17]: 60
Cc1cc(C)c(C(=O)N2CCC(Cl)CC2)cc1NS(=O)(=O)C(F)(F)F [Compound 242]																					Plant response rating, Pigweed ([1]; 1000 g ai/ha): 100; Plant response rating, Ryegrass, Italian ([2]; 1000 g ai/ha): 100; Plant response rating, Kochia (kochia (Bassia scoparia) [3]; [18]): 80; Plant response rating, Barnyardgrass ([4]; 1000 g ai/ha): 100; Plant response rating, Wheat [5, 18]: 60; Plant response rating, Blackgrass [6, 18]: 40; Plant response rating, Foxtail, Giant ([7]; 1000 g ai/ha): 100; Plant response rating, Corn (corn (Zea mays); [18]): 70; Plant response rating, Kochia (kochia (Bassia scoparia) [8]; 1000 g ai/ha): 90; Plant response rating, Barnyardgrass [9, 18]: 90; Plant response rating, Ragweed [10, 18]: 90; Plant response rating, Foxtail, Giant [11, 18]: 90; Plant response rating, Galium [12, 18]: 90; Plant response rating, Ragweed ([13]; 1000 g ai/ha): 90; Plant response rating, Pigweed [14, 18]: 90; Plant response rating, Ryegrass, Italian [15, 18]: 0
